# Assays:
# [1] = test system: MDA-MB-231 breast cancer cells; assay: MTT cytotoxicity assay, MDA-MB-231; assay type: cell-based; details: MDA-MB-231, MTT; for IC50: mean of three independent experiments ± SD, read-out: IC50 Value MDA-MB-231
# Method: (§1) All newly synthetic compounds were tested for cytotoxicity using a six-dose MTT colorimetric assay on three cancer cell lines; namely, breast cancer cells (MDA-MB-231), colorectal adenocarcinoma cells (HT-29) and renal cancer cells (U-937). […] However, renal cancer cells (U-937) were discovered to be the least sensitive.
# (§2) Using a six-dose MTT colorimetric assay, all new synthetic compounds were tested for cytotoxicity against three cancer cell lines: MDA-MB-231 breast cancer cells, HT-29 colorectal adenocarcinoma cells, and U-937 renal cancer cells. […] These cell lines were supplied by ATCC (American Type Culture Collection) via the Holding company for biological products and vaccines (VACSERA, Cairo, Egypt). The reference control used was Methotrexate. Detailed descriptions of the MTT colorimetric assay’s protocol can be found in the Supplementary file.
# (§3) 1.1.In-vitro cytotoxicity screening
# (§4) Using a six-dose MTT colorimetric assay, allnew synthetic compounds were tested for cytotoxicity against three cancer cell lines: MDA-MB-231 breast cancer cells,HT-29 colorectal adenocarcinoma cells, and U-937 renal […]
# (§5) The cell lines were supplied by ATCC (American Type Culture Collection). The reference control used was Methotrexate. The cytotoxic activities of the examined compounds were quantified by inoculating a 96-well tissue culture plate with 1 X 10^5 cells / mL (100 uL/well) and incubating it at 37°C for 24 hours to develop a complete monolayer sheet. After forming a confluent sheet of cells, the growth medium was decanted from 96-well microtiter plates, and the cell monolayer was washed twice with wash media. Two-fold dilutions of tested samples were made in RPMI medium with 2% serum (maintenance medium), and 0.1 mL of each dilution was tested in different wells, with three wells serving as controls and receiving only maintenance medium. Following that, the plate was incubated at 37°C and examined. Cells were investigated for any physical signs of toxicity, such as partial or complete monolayer loss, rounding, shrinkage, or cell granulation. MTT solution was prepared (5mg/ml in PBS) (BIO BASIC CANADA INC), and 20 uL MTT solution was added to each well. After 5 minutes on a shaking table at150 rpm to thoroughly mix the MTT into the media, it was incubated (37°C, 5% CO2) for 4 hours to allow the MTT to be metabolized. Formazan (MTT metabolic product) was resuspended in 200 uL DMSO and shaken at 150 rpm for 5 minutes to thoroughly mix the formazan into the solvent. The optical density was measured at 560 nm, and the background was subtracted at 620 nm. Finally, the IC50 of the test compound in comparison to the reference was calculated using the GraphPad Prism software. […]
# U-937 renal cancer cells = assay: MTT cytotoxicity assay, U-937; assay type: cell-based; details: MTT; for IC50: Homo sapiens, U-937, mean of three independent experiments ± SD, read-out: IC50 Value U-937; for Toxicity %: U937;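 on all read-outs here: Six-dose MTT colorimetric assay on cell monolayers, formazan absorbance read at 560 nm with 620 nm background removed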
# Method: (§6) Using a six-dose MTT colorimetric assay [44, 66], all new synthetic compounds were tested for cytotoxicity against three cancer cell lines: MDA-MB-231 breast cancer cells, HT-29 colorectal adenocarcinoma cells, and U-937 renal cancer cells. […] These cell lines were supplied by ATCC (American Type Culture Collection) via the Holding company for biological products and vaccines (VACSERA, Cairo, Egypt). The reference control used was Methotrexate.
# (§7) Using a six-dose MTT colorimetric assay [44, 66], allnew synthetic compounds were tested for cytotoxicity against three cancer cell lines: MDA-MB-231 breast cancer cells,HT-29 colorectal adenocarcinoma cells, and U-937 renal
# (§8) The cell lines were supplied by ATCC (American Type Culture Collection). The reference control used was Methotrexate. The cytotoxic activities of the examined compounds were quantified by inoculating a 96-well tissue culture plate with 1 X 10^5 cells / mL (100 uL/well) and incubating it at 37°C for 24 hours to develop a complete monolayer sheet. After forming a confluent sheet of cells, the growth medium was decanted from 96-well microtiter plates, and the cell monolayer was washed twice with wash media. Two-fold dilutions of tested samples were made in RPMI medium with 2% serum (maintenance medium), and 0.1 mL of each dilution was tested in different wells, with three wells serving as controls and receiving only maintenance medium. Following that, the plate was incubated at 37°C and examined. Cells were investigated for any physical signs of toxicity, such as partial or complete monolayer loss, rounding, shrinkage, or cell granulation. MTT solution was prepared (5mg/ml in PBS) (BIO BASIC CANADA INC), and 20 uL MTT solution was added to each well. After 5 minutes on a shaking table at150 rpm to thoroughly mix the MTT into the media, it was incubated (37C, 5% CO2) for 4 hours to allow the MTT to be metabolized. Formazan (MTT metabolic product) was resuspended in 200 uL DMSO and shaken at 150 rpm for 5 minutes to thoroughly mix the formazan into the solvent. The optical density was measured at 560 nm, and the background was subtracted at 620 nm. Finally, the IC50 of the test compound in comparison to the reference was calculated using the GraphPad Prism software.
# [2] = MTT cytotoxicity assay, U-937; assay type: cell-based; details: Homo sapiens, U-937, U937, MTT;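 further: Six-dose MTT colorimetric assay on cell monolayers, formazan absorbance read at 560 nm with 620 nm background removed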
# Method: as §6, §7, §8
# [3] = test system: HT-29 colorectal adenocarcinoma cells; assay: MTT cytotoxicity assay, HT-29; assay type: cell-based; details: MTT; for IC50: mean of three independent experiments ± SD, read-out: IC50 Value HT-29
# Method: as §1, §2, §3, §4, §5
# [4] = MTT cytotoxicity assay, normal Vero cells; assay type: cell-based; details: African green monkey, normal Vero cells, MTT;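 further: monolayers exposed to two-fold dilutions in 2% serum medium, MTT added for 4 h, formazan in DMSO read at 560 nm minus 620 nm, controls given medium alone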
# Method: as §6, §7, §8
# normal Vero cells = assay: MTT cytotoxicity assay, normal Vero cells; assay type: cell-based; details: Vero, MTT;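 further: monolayers exposed to two-fold dilutions in 2% serum medium, MTT added for 4 h, formazan in DMSO read at 560 nm minus 620 nm, controls given medium alone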
# Method: as §6, §7, §8
# [5] = Homo sapiens, HT-29, HT29, 0.312 uM
# [6] = Homo sapiens, HT-29, HT29, 0.625 uM
# [7] = Homo sapiens, HT-29, HT29, 1.25 uM
# [8] = Homo sapiens, HT-29, HT29, 2.5 uM
# [9] = Homo sapiens, HT-29, HT29, 5 uM
# [10] = Homo sapiens, HT-29, HT29, 10 uM
compound,measurement,setting,value
"Cn1c(=S)[nH]c(=O)c2nc(-c3ccccc3)c(-c3ccccc3)nc21 [Compound 10, 1-Methyl-6,7-diphenyl-2-thioxo-2,3-dihydropteridin-4(1H)-one]",IC50,[1]; Homo sapiens,3.4 ± 0.02 µM
same,viability at 0.312 µM,"[1]; Homo sapiens, 0.312 uM",100%
same,viability at 0.625 µM,"[1]; Homo sapiens, 0.625 uM",100%
same,viability at 1.25 µM,"[1]; Homo sapiens, 1.25 uM",98.8%
same,viability at 2.5 µM,"[1]; Homo sapiens, 2.5 uM",54.3%
same,viability at 5 µM,"[1]; Homo sapiens, 5 uM",26.3%
same,viability at 10 µM,"[1]; Homo sapiens, 10 uM",7.93%
same,Toxicity %,[1]; 0.312 uM,0%
same,Toxicity %,[1]; 0.625 uM,0%
same,Toxicity %,[1]; 1.25 uM,1.197%
same,Toxicity %,[1]; 2.5 uM,45.66%
same,Toxicity %,[1]; 5 uM,73.67%
same,Toxicity %,[1]; 10 uM,92.07%
same,melting point,,287 °C
same,IC50,U-937 renal cancer cells,8.37 ± 0.23 µM
same,Toxicity %,U-937 renal cancer cells; 0.312 uM,0.5447%
same,Toxicity %,U-937 renal cancer cells; 0.625 uM,0.1634%
same,Toxicity %,U-937 renal cancer cells; 1.25 uM,0.05447%
same,Toxicity %,U-937 renal cancer cells; 2.5 uM,4.248%
same,Toxicity %,U-937 renal cancer cells; 5 uM,15.03%
same,Toxicity %,U-937 renal cancer cells; 10 uM,65.14%
same,viability at 0.312 µM,[2],99.5%
same,viability at 0.625 µM,[2],99.8%
same,viability at 1.25 µM,[2],99.9%
same,viability at 2.5 µM,[2],95.8%
same,viability at 5 µM,[2],85%
same,viability at 10 µM,[2],34.9%
same,Toxicity %,"[3]; HT29, 0.312 uM",0%
same,Toxicity %,"[3]; HT29, 0.625 uM",0%
same,Toxicity %,"[3]; HT29, 1.25 uM",2.239%
same,Toxicity %,"[3]; HT29, 2.5 uM",18.99%
same,Toxicity %,"[3]; HT29, 5 uM",41.09%
same,Toxicity %,"[3]; HT29, 10 uM",96.3%
same,viability at 0.312 µM,[3]; [5],100%
same,viability at 0.625 µM,[3]; [6],100%
same,viability at 1.25 µM,[3]; [7],97.8%
same,viability at 2.5 µM,[3]; [8],81%
same,viability at 5 µM,[3]; [9],58.9%
same,viability at 10 µM,[3]; [10],3.7%
same,IC50,"[3]; Homo sapiens, HT-29",5.63 ± 0.13 µM
"CN(Cc1cnc2nc(N)nc(N)c2n1)c1ccc(C(=O)N[C@@H](CCC(=O)O)C(=O)O)cc1 [Methotrexate, reference compound]",IC50,"[4]; mean of three independent experiments ± SD, read-out: In Vitro Cytotoxicity against Normal Cells IC50 Value, Vero Cells",10.2 ± 0.3 µM
same,viability at 0.312 µM,"[4]; Vero, 0.312 uM",99.7%
same,viability at 0.625 µM,"[4]; Vero, 0.625 uM",100%
same,viability at 1.25 µM,"[4]; Vero, 1.25 uM",99.3%
same,viability at 2.5 µM,"[4]; Vero, 2.5 uM",97.3%
same,viability at 5 µM,"[4]; Vero, 5 uM",87.6%
same,viability at 10 µM,"[4]; Vero, 10 uM",50.2%
same,Toxicity %,normal Vero cells; 0.312 uM,0.3046%
same,Toxicity %,normal Vero cells; 0.625 uM,0.04352%
same,Toxicity %,normal Vero cells; 1.25 uM,0.7398%
same,Toxicity %,normal Vero cells; 2.5 uM,2.698%
same,Toxicity %,normal Vero cells; 5 uM,12.45%
same,Toxicity %,normal Vero cells; 10 uM,49.78%
same,IC50,[1]; Homo sapiens,2.79 ± 0.06 µM
same,viability at 0.078 µM,"[1]; Homo sapiens, 0.078 uM",99.9%
same,viability at 0.156 µM,"[1]; Homo sapiens, 0.156 uM",99.7%
same,viability at 0.312 µM,"[1]; Homo sapiens, 0.312 uM",99.6%
same,viability at 0.625 µM,"[1]; Homo sapiens, 0.625 uM",99.8%
same,viability at 1.25 µM,"[1]; Homo sapiens, 1.25 uM",81.5%
same,viability at 2.5 µM,"[1]; Homo sapiens, 2.5 uM",42.4%
same,viability at 5 µM,"[1]; Homo sapiens, 5 uM",19.5%
same,viability at 10 µM,"[1]; Homo sapiens, 10 uM",11.8%
same,Toxicity %,[1]; 0.078 uM,0.0883%
same,Toxicity %,[1]; 0.156 uM,0.2649%
same,Toxicity %,[1]; 0.312 uM,0.3532%
same,Toxicity %,[1]; 0.625 uM,0.2208%
same,Toxicity %,[1]; 1.25 uM,18.45%
same,Toxicity %,[1]; 2.5 uM,57.62%
same,Toxicity %,[1]; 5 uM,80.53%
same,Toxicity %,[1]; 10 uM,88.17%
same,IC50,U-937 renal cancer cells,1.22 ± 0.02 µM
same,Toxicity %,U-937 renal cancer cells; 0.078 uM,0.1004%
same,Toxicity %,U-937 renal cancer cells; 0.156 uM,0.0502%
same,Toxicity %,U-937 renal cancer cells; 0.312 uM,1.104%
same,Toxicity %,U-937 renal cancer cells; 0.625 uM,3.112%
same,Toxicity %,U-937 renal cancer cells; 1.25 uM,52.46%
same,Toxicity %,U-937 renal cancer cells; 2.5 uM,68.47%
same,Toxicity %,U-937 renal cancer cells; 5 uM,91.62%
same,Toxicity %,U-937 renal cancer cells; 10 uM,92.37%
same,viability at 0.078 µM,[2]; 0.078 uM,99.9%
same,viability at 0.156 µM,[2]; 0.156 uM,99.9%
same,viability at 0.312 µM,[2],98.9%
same,viability at 0.625 µM,[2],96.9%
same,viability at 1.25 µM,[2],47.5%
same,viability at 2.5 µM,[2],31.5%
same,viability at 5 µM,[2],8.38%
same,viability at 10 µM,[2],7.63%
same,Toxicity %,"[3]; HT29, 0.078 uM",0.5016%
same,Toxicity %,"[3]; HT29, 0.156 uM",0.912%
same,Toxicity %,"[3]; HT29, 0.312 uM",0.228%
same,Toxicity %,"[3]; HT29, 0.625 uM",26.95%
same,Toxicity %,"[3]; HT29, 1.25 uM",66.94%
same,Toxicity %,"[3]; HT29, 2.5 uM",89.83%
same,Toxicity %,"[3]; HT29, 5 uM",97.45%
same,Toxicity %,"[3]; HT29, 10 uM",97.58%
same,viability at 0.078 µM,"[3]; Homo sapiens, HT-29, HT29, 0.078 uM",99.5%
same,viability at 0.156 µM,"[3]; Homo sapiens, HT-29, HT29, 0.156 uM",99.1%
same,viability at 0.312 µM,[3]; [5],99.8%
same,viability at 0.625 µM,[3]; [6],73.1%
same,viability at 1.25 µM,[3]; [7],33.1%
same,viability at 2.5 µM,[3]; [8],10.2%
same,viability at 5 µM,[3]; [9],2.55%
same,viability at 10 µM,[3]; [10],2.42%
same,IC50,"[3]; Homo sapiens, HT-29",0.99 ± 0.02 µM
